Measured values published in patent EP4043037A1, “CELLULAR HYDRATION COMPOSITIONS CONTAINING CYCLODEXTRINS” (Eastpond Laboratories Limited, priority 2010, dated 2012).

Columns and labels:
[1] = NIR spectroscopy of water bonding with cyclodextrin additives; assay type: physicochemical
Method: Hydration bond energies in pure waters and solutions of the same waters containing cyclodextrin compounds were assayed using IR spectroscopy in the near and middle infrared ranges. To record linear signals throughout an entire wavelength range, attenuation from water absorbance was minimized with a short optical length cuvette.
NIR range spectra were registered on a FOSS NIR Systems, Inc. 6500 spectrometer and Sample Transport Module (STM) using a 1 mm-es cuvette. […]
Three samples of water were used in the present study. A first water sample (USA I) was obtained from the U.S. and was purified by reverse osmosis, carbon filtration, ultraviolet light exposure, membrane filtration to 0.2 micron absolute, and ozonation. A second water sample (USA II) was also obtained from the U.S. A third water sample (BP I) was obtained from Budapest, Hungary.
The following cyclodextrins were added to the above described water samples at a concentration range of 0.1% - 5% w/v: • α-cyclodextrin (αCD also denoted as ACD), Lot. No. CYL-2322. • β-cyclodextrin (βCD also denoted as BCD). Lot. No. CYL-2518/2. • γ-cyclodextrin (γCD also denoted as GCD), Lot. No. CYL-2323. • 2-hydroxypropyl-β-cyclodextrin (HPβCD, HPBCD), DS^∗ = 3.5, Lot. No. CYL-2232. • 2-hydroxypropyl-γ-cyclodextrin (HPCD, HPGCD), DS^∗ = 4.8, Lot. No. CYL-2258. • carboxymethyl-β-cyclodextrin (CMBCD), Lot. No. CYL-2576. • quaternary-ammonium-β-cyclodextrin (QABCD).

C. elegans nematodes = assay: C. elegans lifespan in media with additives; assay type: in vivo; details: for Animals alive, % of initial (N=50): derivatized cyclodextrin 0.1% w/v in media, USA 1 water; for effect on C. elegans survival: added to culture media; for effect on C. elegans survival / number of animals surviving to old ages: result in words; for number of animals surviving to old ages: after day 15, 0.1 % w/v; for Animals alive, (N= % of initial =50): parent cyclodextrin 0.1% w/v in media, USA I water
Method: C. elegans nematodes were grown in petri-type dishes containing normal nutrient liquid media prepared alternatively with USA 1 water (described in Example 2) lacking any further additive component (control) or the same water supplemented with a parent α-, β-, or γ-cyclodextrin, and/or a bioactive agent, as an active component of cellular hydration. Fifty ⊥ 3 worms were transferred to each dish. Each condition was repeated in triplicate. Experiments were repeated for USA II and BP I waters described in Example 2.
Water additives: A. Addition of parent α-, β- and γ-cvclodcxtrins. B. Addition of L-arginine and nicotinamide. C. Addition of inclusion complexes of cyclodextrins with L-arginine and nicotinamide.

[2] = test system: Wheat seeds (Triticum aestivum); assay: Wheat seed germination in water with additives; assay type: in vivo
Method: For each condition, ten seeds were placed in continuous water contact in a Petri-type dish kept at 25C in 12 hr light/dark cycles. Photometric images were recorded on days 1 to 6 after seeding. The percentage of seeds germinated was calculated and compared as a function of time and of the applied additive concentrations.
Water samples for seed germination were used alone with no additive, or containing cyclodextrins, or containing clathrate inclusion complexes of cyclodextrin with L-arginine or with nicotinamide (both obtained from Sigma Chemical Co.; St. Louis, MO), or with L-carnitine (from Lonza AG; Switzerland). […] Additive solutions were prepared fresh on the day of germination start.
Germination kinetics in control and additive-modified water under identical conditions were quantified as the percentage of the seeds having a sprout. Each determination consisted of 100 seeds for each parameter. Results are reported in Table 1, below, and in FIGS. 11-13.

[3] = wavelength region 900-1200 nm (FIG. 7)
[4] = day 0, additive 0.5% w/v in USA I water, Table 1
[5] = day 1, additive 0.5% w/v in USA I water, Table 1
[6] = day 2, additive 0.5% w/v in USA I water, Table 1
[7] = day 3, additive 0.5% w/v in USA I water, Table 1
[8] = day 4, additive 0.5% w/v in USA I water, Table 1
[9] = day 0, additive 0.5% w/v in USA 1 water, Table 2, percentage of the seeds having a sprout
[10] = day 1, additive 0.5% w/v in USA 1 water, Table 2, percentage of the seeds having a sprout
[11] = day 2, additive 0.5% w/v in USA 1 water, Table 2, percentage of the seeds having a sprout
[12] = day 3, additive 0.5% w/v in USA 1 water, Table 2, percentage of the seeds having a sprout
[13] = day 4, additive 0.5% w/v in USA 1 water, Table 2, percentage of the seeds having a sprout

2-hydroxy-3-N,N,N-trimethylamino)propyl-β-cyclodextrin chloride [Quaternaryammonium-β-Cyclodextrin]
water-bond interactions, second-derivative NIR spectra ([1]; 1200-1500 nm (FIG. 8)): significantly modified | water-bond interactions, second-derivative NIR spectra ([1]; 1620-1710 nm (FIG. 9)): significantly modified | water-bond interactions, second-derivative NIR spectra ([1]; 2170-2370 nm (FIG. 10)): further significantly modified | effect on micro-structure of hydrogen bonds in bulk water (NIR spectral changes) ([1]; comparison among cyclodextrin-treated water samples (FIGS. 9 and 10)): largest | water-bond interactions, second-derivative NIR spectra [1, 3]: significantly modified | Animals alive, % of initial (N=50) (C. elegans nematodes; life span 10 days): 98 % of initial | Animals alive, % of initial (N=50) (C. elegans nematodes; life span 15 days): 13 % of initial | Animals alive, % of initial (N=50) (C. elegans nematodes; life span 18 days): 2 % of initial

CC(O)COC[C@H]1O[C@@H]2O[C@H]3[C@H](O)[C@@H](O)[C@@H](O[C@H]4[C@H](O)[C@@H](O)[C@@H](O[C@H]5[C@H](O)[C@@H](O)[C@@H](O[C@H]6[C@H](O)[C@@H](O)[C@@H](O[C@H]7[C@H](O)[C@@H](O)[C@@H](O[C@H]8[C@H](O)[C@@H](O)[C@@H](O[C@H]1[C@H](O)[C@H]2O)O[C@@H]8COCC(C)O)O[C@@H]7COCC(C)O)O[C@@H]6COCC(C)O)O[C@@H]5COCC(C)O)O[C@@H]4COCC(C)O)O[C@@H]3COCC(C)O (stereo partly drawn) [HP-β-Cyclodextrin, 2-hydroxypropyl-β-cyclodextrin]
water-bond interactions, second-derivative NIR spectra ([1]; 1200-1500 nm (FIG. 8)): significantly modified | water-bond interactions, second-derivative NIR spectra ([1]; 1620-1710 nm (FIG. 9)): significantly modified | water-bond interactions, second-derivative NIR spectra ([1]; 2170-2370 nm (FIG. 10)): significantly modified | water-bond interactions, second-derivative NIR spectra [1, 3]: further significantly modified | Animals alive, % of initial (N=50) (C. elegans nematodes; life span 10 days): 96 % of initial | Animals alive, % of initial (N=50) (C. elegans nematodes; life span 15 days): 17 % of initial | Animals alive, % of initial (N=50) (C. elegans nematodes; life span 18 days): 0 % of initial

N=C(N)NCCC[C@H](N)C(=O)O [L-Arg, L-arginine, reference compound]
wheat seed germination rate [2, 4]: 0 percentage of total seeds | wheat seed germination rate [2, 5]: 0 percentage of total seeds | wheat seed germination rate [2, 6]: 30 percentage of total seeds | wheat seed germination rate [2, 7]: 45 percentage of total seeds | wheat seed germination rate [2, 8]: 60 percentage of total seeds | effect on C. elegans survival (C. elegans nematodes): little effect

carboxymethyl-β-cyclodextrin [Carboxymethyl-β-Cydodextrin]
water-bond interactions, second-derivative NIR spectra ([1]; 1200-1500 nm (FIG. 8)): further significantly modified | water-bond interactions, second-derivative NIR spectra ([1]; 1620-1710 nm (FIG. 9)): significantly modified | water-bond interactions, second-derivative NIR spectra ([1]; 2170-2370 nm (FIG. 10)): significantly modified | water-bond interactions, second-derivative NIR spectra [1, 3]: further significantly modified | Animals alive, % of initial (N=50) (C. elegans nematodes; life span 10 days): 94 % of initial | Animals alive, % of initial (N=50) (C. elegans nematodes; life span 15 days): 11 % of initial | Animals alive, % of initial (N=50) (C. elegans nematodes; life span 18 days): 0 % of initial

NC(=O)c1cccnc1 [nicotinamide, reference compound]
wheat seed germination rate [2, 9]: 0% | wheat seed germination rate [2, 10]: 0% | wheat seed germination rate [2, 11]: 4% | wheat seed germination rate [2, 12]: 10% | wheat seed germination rate [2, 13]: 60% | effect on C. elegans survival (C. elegans nematodes): little effect

α-cyclodextrin
wheat seed germination rate [2, 9]: 0% | wheat seed germination rate [2, 4]: 0 percentage of total seeds | wheat seed germination rate [2, 10]: 11% | wheat seed germination rate [2, 5]: 0 percentage of total seeds | wheat seed germination rate [2, 11]: 18% | wheat seed germination rate [2, 6]: 48 percentage of total seeds | wheat seed germination rate [2, 12]: 68% | wheat seed germination rate [2, 7]: 70 percentage of total seeds | wheat seed germination rate [2, 13]: 92% | wheat seed germination rate [2, 8]: 85 percentage of total seeds | number of animals surviving to old ages (C. elegans nematodes): significantly increased | Animals alive, (N= % of initial =50) (C. elegans nematodes; life span 10 days): 100 % of initial | Animals alive, (N= % of initial =50) (C. elegans nematodes; life span 15 days): 20 % of initial | Animals alive, (N= % of initial =50) (C. elegans nematodes; life span 18 days): 2 % of initial

γ-cyclodextrin
number of animals surviving to old ages (C. elegans nematodes): significantly increased | Animals alive, (N= % of initial =50) (C. elegans nematodes; life span 10 days): 100 % of initial | Animals alive, (N= % of initial =50) (C. elegans nematodes; life span 15 days): 13 % of initial | Animals alive, (N= % of initial =50) (C. elegans nematodes; life span 18 days): 2 % of initial

OC[C@H]1O[C@@H]2O[C@H]3[C@H](O)[C@@H](O)[C@@H](O[C@H]4[C@H](O)[C@@H](O)[C@@H](O[C@H]5[C@H](O)[C@@H](O)[C@@H](O[C@H]6[C@H](O)[C@@H](O)[C@@H](O[C@H]7[C@H](O)[C@@H](O)[C@@H](O[C@H]8[C@H](O)[C@@H](O)[C@@H](O[C@H]1[C@H](O)[C@H]2O)O[C@@H]8CO)O[C@@H]7CO)O[C@@H]6CO)O[C@@H]5CO)O[C@@H]4CO)O[C@@H]3CO [β-Cydodextrin, β-cyclodextrin]
Animals alive, (N= % of initial =50) (C. elegans nematodes; life span 10 days): 100 % of initial | Animals alive, (N= % of initial =50) (C. elegans nematodes; life span 15 days): 18 % of initial | Animals alive, (N= % of initial =50) (C. elegans nematodes; life span 18 days): 0 % of initial
